Laboratory results as given in US20230174530A1, “N-(PHENYLAMINOCARBONYL) TETRAHYDRO-ISOQUINOLINES AND RELATED COMPOUNDS AS MODULATORS OF GPR65” (PATHIOS THERAPEUTICS LIMITED, priority 2020, published 2023).

These compounds were tested against T1, human recombinant GPR65 (Homo sapiens, UniProt Q8IYL9) (assay: Human GPR65 cAMP HTRF antagonist assay). Conditions: 1321N1-hrGPR65 cells stimulated at assay pH 7.2; suppression of cAMP rise; read-out: hGPR65 IC50.
T1 construct: host or cells: 1321N1 human astrocytoma cells (1321N1-hrGPR65)
Assay type: cell-based
Procedure: Human GPR65 Cyclic Adenosine Monophosphate (cAMP) Homogeneous Time Resolved Fluorescence (HTRF) Antagonist Assay Procedure
IC50 data was obtained by the following procedure:
1321N1 human astrocytoma cells stably expressing human recombinant GPR65 (1321N1-hrGPR65 cells, EuroscreenFast) were cultured according to the vendor's instructions.
Compounds were tested for their ability to antagonise GPR65, through measuring the concentration of cytoplasmic cAMP following treatment of the cells at a pH of 7.2 to activate GPR65 signalling and addition of the compound to be tested. The extent to which the expected rise in cAMP concentration upon GPR65 activation was suppressed by the added compound is indicative of its potency. The assay was carried out according to EuroscreenFast assay methodology as follows.
On the day of the assay, test compounds were added to 384-well, low volume, white microtiter plates by acoustic dispensing. KRH buffer (5 mM KCl, 1.25 mM MgSO4, 124 mM NaCl, 25 mM HEPES, 13.3 mM Glucose, 1.25 mM KH2PO4 and 1.45 mM CaCl2) was adjusted to pH 6.5, pH 7.6 and pH 8.4 by adding NaOH. 1321N1-hGPR65 cells were rapidly thawed and diluted in KRH, pH 7.6 prior to centrifugation at 300×g for 5 min and resuspension in assay buffer (KRH, pH 7.6, supplemented with 1 mM 3-isobutyl-1-methylxanthine (IBMX) and 200 μM ethylenediaminetetraacetic acid (EDTA)). Cells were added to assay plates at a density of 2,000 cells per well in a volume of 5 μl. Assay plates were briefly centrifuged at 100×g and then incubated at room temperature for 30 min. Cells were stimulated by the addition of 5 μL KRH, pH 6.5, to achieve an assay pH of 7.2, while control wells received 5 μl KRH, pH 8.4 to achieve an assay pH of 7.9. Assay plates were briefly centrifuged at 100×g and then incubated at room temperature for 30 min.
Accumulation of cAMP was detected by cAMP HTRF kit (Cisbio). d2-labeled cAMP and cryptate-labeled anti-cAMP antibody in Lysis and Detection Buffer (Cisbio) were added to assay plates, and the plates were incubated at room temperature for 1 h. HTRF measurements were performed using a Pherastar FSX instrument. Acceptor and donor emission signals were measured at 665 nm and 620 nm, respectively, and HTRF ratios were calculated as signal665 nm/signal620 nm×10^4. Data were normalised to high and low control values and fitted with 4-parameter logistic regression to determine hGPR65 IC50 values for the test compounds, which are shown in Table 1.

T1 sequence (Q8IYL9 whole entry): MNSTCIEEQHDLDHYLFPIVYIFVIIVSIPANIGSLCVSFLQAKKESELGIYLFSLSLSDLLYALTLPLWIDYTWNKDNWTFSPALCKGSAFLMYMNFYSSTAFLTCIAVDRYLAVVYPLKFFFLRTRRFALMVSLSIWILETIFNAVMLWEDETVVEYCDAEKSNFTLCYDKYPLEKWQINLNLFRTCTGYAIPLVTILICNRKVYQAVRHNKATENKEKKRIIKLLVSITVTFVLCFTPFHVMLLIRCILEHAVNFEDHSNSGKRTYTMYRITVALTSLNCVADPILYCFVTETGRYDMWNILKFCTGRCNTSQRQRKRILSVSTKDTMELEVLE

| SMILES | IC50 |
| --- | --- |
| O=C(Nc1ccc(Cl)c(C(F)(F)F)c1)N1CCc2cccc(F)c2C1 [Compound 46, N-(4-Chloro-3-(trifluoromethyl)phenyl)-8-fluoro-3,4-dihydroisoquinoline-2(1H)-carboxamide] | > 5000 nM |
| O=C(Nc1ccc(Cl)c(C(F)(F)F)c1)N1CCc2cc(F)ccc2C1 [Compound 43, N-(4-Chloro-3-(trifluoromethyl)phenyl)-6-fluoro-3,4-dihydroisoquinoline-2(1H)-carboxamide] | < 500 nM |
| N#Cc1ccc2c(c1)CN(C(=O)Nc1ccc(Cl)c(C(F)(F)F)c1)CC2 [Compound 50, N-(4-Chloro-3-(trifluoromethyl)phenyl)-7-cyano-3,4-dihydroisoquinoline-2(1H)-carboxamide] | 500 to 5000 nM |
| O=C(Nc1ccc(C(F)(F)F)c(Cl)c1)N1CCc2cnc(F)cc2C1 [Compound 87, N-(3-Chloro-4-(trifluoromethyl)phenyl)-7-fluoro-3,4-dihydro-2,6-naphthyridine-2(1H)-carboxamide] | 500 to 5000 nM |
| O=C(Nc1ccc(Cl)c(Cl)c1)N1CCc2cc(-c3cccnc3F)ccc2C1 [Compound 126, N-(3,4-Dichlorophenyl)-6-(2-fluoropyridin-3-yl)-3,4-dihydroisoquinoline-2(1H)-carboxamide] | 500 to 5000 nM |
| CC1c2ccc(F)cc2CCN1C(=O)Nc1ccc(Cl)c(Cl)c1 (centres unmarked) [Compound 93, N-(3,4-Dichlorophenyl)-6-fluoro-1-methyl-3,4-dihydroisoquinoline-2(1H)-carboxamide] | < 500 nM |
| O=C(Nc1ccc(Cl)c(Cl)c1)N1CCc2cc(-c3ccsc3)ccc2C1 [Compound 128, N-(3,4-Dichlorophenyl)-6-(thiophen-3-yl)-3,4-dihydroisoquinoline-2(1H)-carboxamide] | > 5000 nM |
| O=C(Nc1ccc(Cl)c(C(F)(F)F)c1)N1CCc2cnccc2C1 [Compound 13, N-(4-Chloro-3-(trifluoromethyl)phenyl)-3,4-dihydro-2,6-naphthyridine-2(1H)-carboxamide] | 500 to 5000 nM |
| O=C(Nc1ccc(C(F)(F)F)c(Cl)c1)N1CCc2cccc(F)c2C1 [Compound 47, N-(3-Chloro-4-(trifluoromethyl)phenyl)-8-fluoro-3,4-dihydroisoquinoline-2(1H)-carboxamide] | 500 to 5000 nM |
| COc1cc2c(cn1)CCN(C(=O)Nc1ccc(Cl)c(Cl)c1)C2 [Compound 105, N-(3,4-Dichlorophenyl)-7-methoxy-3,4-dihydro-2,6-naphthyridine-2(1H)-carboxamide] | > 5000 nM |
| O=C(Nc1ccc(C(F)(F)F)c(Cl)c1)N1CCc2cc(=O)[nH]cc2C1 [Compound 74, N-(3-Chloro-4-(trifluoromethyl)phenyl)-6-oxo-3,4,6,7-tetrahydro-2,7-naphthyridine-2(1H)-carboxamide] | < 500 nM |
| O=C(Nc1ccc(C(F)(F)F)c(Cl)c1)N1CCc2cc(Cl)ncc2C1 [Compound 91, 6-Chloro-N-(3-chloro-4-(trifluoromethyl)phenyl)-3,4-dihydro-2,7-naphthyridine-2(1H)-carboxamide] | 500 to 5000 nM |
| N#Cc1cc2c(cn1)CCN(C(=O)Nc1ccc(Cl)c(Cl)c1)C2 [Compound 103, 7-Cyano-N-(3,4-dichlorophenyl)-3,4-dihydro-2,6-naphthyridine-2(1H)-carboxamide] | 500 to 5000 nM |
| O=C(Nc1ccc(Cl)c(Cl)c1)N1CCc2ccncc2C1 [Compound 15, N-(3,4-Dichlorophenyl)-3,4-dihydro-2,7-naphthyridine-2(1H)-carboxamide] | 500 to 5000 nM |
| O=C(Nc1ccc(Cl)c(Cl)c1)N1CCc2c(Cl)cccc2C1 [Compound 55, 5-Chloro-N-(3,4-dichlorophenyl)-3,4-dihydroisoquinoline-2(1H)-carboxamide] | 500 to 5000 nM |
| O=C(Nc1ccc(Cl)c(Cl)c1)N1CCc2cncnc2C1 [Compound 8, N-(3,4-Dichlorophenyl)-5,8-dihydropyrido[3,4-d]pyrimidine-7(6H)-carboxamide] | > 5000 nM |
| Nc1cc2c(cn1)CCN(C(=O)Nc1ccc(Cl)c(Cl)c1)C2 [Compound 82, 7-Amino-N-(3,4-dichlorophenyl)-3,4-dihydro-2,6-naphthyridine-2(1H)-carboxamide] | < 500 nM |
| COC(=O)c1cc2c(cn1)CN(C(=O)Nc1ccc(C(F)(F)F)c(Cl)c1)CC2 [Compound 129, Methyl 7-((3-chloro-4-(trifluoromethyl)phenyl)carbamoyl)-5,6,7,8-tetrahydro-2,7-naphthyridine-3-carboxylate] | 500 to 5000 nM |
| Nc1cc2c(cn1)CCN(C(=O)Nc1ccc(C(F)(F)F)c(Cl)c1)C2 [Compound 83, 7-Amino-N-(3-chloro-4-(trifluoromethyl)phenyl)-3,4-dihydro-2,6-naphthyridine-2(1H)-carboxamide] | < 500 nM |
| O=C(Nc1ccc(C(F)(F)F)c(Cl)c1)N1CCc2ccncc2C1 [Compound 17, N-(3-Chloro-4-(trifluoromethyl)phenyl)-3,4-dihydro-2,7-naphthyridine-2(1H)-carboxamide] | 500 to 5000 nM |
| O=C(Nc1ccc(Cl)cc1)N1CCc2ncncc2C1 [Compound 2, N-(4-Chlorophenyl)-7,8-dihydropyrido[4,3-d]pyrimidine-6(5H)-carboxamide] | > 5000 nM |

Further lines, results first:

| IC50 | SMILES |
| --- | --- |
| 500 to 5000 nM | O=C(Nc1ccc(Cl)c(C(F)(F)F)c1)N1CCc2ccncc2C1 [Compound 16, N-(4-Chloro-3-(trifluoromethyl)phenyl)-3,4-dihydro-2,7-naphthyridine-2(1H)-carboxamide] |
| 500 to 5000 nM | N#Cc1ccc2c(c1)CN(C(=O)Nc1ccc(C(F)(F)F)c(Cl)c1)CC2 [Compound 51, N-(3-Chloro-4-(trifluoromethyl)phenyl)-7-cyano-3,4-dihydroisoquinoline-2(1H)-carboxamide] |
| 500 to 5000 nM | O=C(Nc1ccc(Cl)c(Cl)c1)N1CCc2ncncc2C1 [Compound 1, N-(3,4-Dichlorophenyl)-7,8-dihydropyrido[4,3-d]pyrimidine-6(5H)-carboxamide] |
| 500 to 5000 nM | Cc1cccc2c1CN(C(=O)Nc1ccc(Cl)c(Cl)c1)CC2 [Compound 27, N-(3,4-Dichlorophenyl)-8-methyl-3,4-dihydroisoquinoline-2(1H)-carboxamide] |
| 500 to 5000 nM | Cc1cccc2c1CN(C(=O)Nc1ccc(C(F)(F)F)c(Cl)c1)CC2 [Compound 29, N-(3-Chloro-4-(trifluoromethyl)phenyl)-8-methyl-3,4-dihydroisoquinoline-2(1H)-carboxamide] |
| < 500 nM | O=C(Nc1ccc(Cl)c(C(F)(F)F)c1)N1CCc2cc(Cl)ccc2C1 [Compound 53, 6-Chloro-N-(4-chloro-3-(trifluoromethyl)phenyl)-3,4-dihydroisoquinoline-2(1H)-carboxamide] |
| > 5000 nM | O=C(Nc1ccc(Cl)c(Cl)c1)N1CCc2nccnc2C1 [Compound 23, N-(3,4-Dichlorophenyl)-7,8-dihydropyrido[3,4-b]pyrazine-6(5H)-carboxamide] |
| 500 to 5000 nM | O=C(Nc1ccc(Cl)c(Cl)c1)N1CCc2cnccc2C1 [Compound 12, N-(3,4-Dichlorophenyl)-3,4-dihydro-2,6-naphthyridine-2(1H)-carboxamide] |
| < 500 nM | O=C(Nc1ccc(Cl)c(Cl)c1)N1CCc2cc(=O)[nH]cc2C1 [Compound 76, N-(3,4-Dichlorophenyl)-6-oxo-3,4,6,7-tetrahydro-2,7-naphthyridine-2(1H)-carboxamide] |
| 500 to 5000 nM | O=C(Nc1ccc(Cl)c(Cl)c1)N1CCc2ccc(Cl)cc2C1 [Compound 138, 7-Chloro-N-(3,4-dichlorophenyl)-3,4-dihydroisoquinoline-2(1H)-carboxamide] |
| > 5000 nM | O=C(Nc1cccc(Cl)c1)N1CCc2ncncc2C1 [Compound 3, N-(3-Chlorophenyl)-7,8-dihydropyrido[4,3-d]pyrimidine-6(5H)-carboxamide] |
| < 500 nM | Cc1noc(-c2ccc3c(c2)CCN(C(=O)Nc2ccc(Cl)c(Cl)c2)C3)n1 [Compound 140, N-(3,4-Dichlorophenyl)-6-(3-methyl-1,2,4-oxadiazol-5-yl)-3,4-dihydroisoquinoline-2(1H)-carboxamide] |
| 500 to 5000 nM | O=C(Nc1ccc(Cl)c(C(F)(F)F)c1)N1CCc2ccccc2C1 [Compound 11, N-(4-Chloro-3-(trifluoromethyl)phenyl)-3,4-dihydroisoquinoline-2(1H)-carboxamide] |
| < 500 nM | N#Cc1ccc2c(c1)CCN(C(=O)Nc1ccc(C(F)(F)F)c(Cl)c1)C2 [Compound 39, N-(3-Chloro-4-(trifluoromethyl)phenyl)-6-cyano-3,4-dihydroisoquinoline-2(1H)-carboxamide] |
